Measured values reported in patent EP4371586B1, “MULTIFUNCTIONAL CHITOSAN COMPOSITES FOR BONE DEFECT FILLING AND BONE TISSUE REGENERATION AND METHODS FOR OBTAINING THEM” (Siec Badawcza Lukasiewicz - Instytut Ceramiki i Materialow …, priority 2022, dated 2024).
Ends that are not written are not given here. Peptide text beside a SMILES is read from it.

How the values were obtained:
[1] = tested on: hFOB human osteoblast cell line; experiment: WST-1 proliferation assay of peptides, indirect method per ISO 10993-5; type: cell-based; conditions: % of proliferation of control cells
Method: Cytotoxicity was tested by an indirect method based on the guidelines in ISO 10993- 5 on the hFOB human osteoblast cell line (ATCC) using the LDH assay (Roche). The results presented were averaged from two technical repeats and presented as % relative to control cells treated with 1% Triton X- 100 solution. proliferation was tested by an indirect method based on the guidelines in ISO 10993- 5 on the hFOB human osteoblast cell line (ATCC) using the WST-1 assay (Abcam). The results shown were averaged from two technical repeats and presented as % in relation to control cells cultured without added peptides.
Proliferation and cytotoxicity data were analysed and visualised using GraphPad Prism 8 software (GraphPad Software, USA). Statistical analysis was performed using the Kruskal- Wallis test (p = 0.05). In the next step, the Benjamini, Krieger and Yekutielli multiple comparisons test was performed to control the false discovery rate (p = 0.05). Comparisons were made between results obtained for individual peptide concentrations.

[2] = tested on: Staphylococcus aureus PCM 2602; experiment: MIC by microdilution method (CLSI M07-A9); type: cell-based; conditions: 24 hours at 37 °C, BHI medium, range 3.125 - 250 µg/ml
Method: The antimicrobial properties of the peptide were tested based on Clinical and Laboratory Standards Institute (CLSI) guidelines according to CLSI M07-A9 2012 using the microdilution method. Two bacterial pathogens were used for the study: Gram-positive Staphylococcus aureus PCM 2602 and Gram-negative Pseudomonas aeruginosa PCM 2563.
The bacterial inoculum for the experiment was prepared by direct inoculation of Brain-Heart Infusion medium (BHI) with bacteria from a 24-hour culture on solid medium. The density of the suspension was 0.5 on the McFarland scale. The peptide concentration analysed : 3.125 - 250 µg/ml . Serial dilutions were performed in a 96-well, flat-bottomed, hydrophobic cell culture plate using BHI liquid medium. Then the previously prepared bacterial suspension was added. The final number of pathogens in each well was approximately 5 × 10^5 CFU/ml (Colony Forming Units per millilitre). Microplates were incubated for 24 hours at 37 °C under aerobic conditions. The minimum inhibitory concentration (MIC) for a peptide was defined as the lowest concentration of peptide in a well where no bacterial growth was observed. All experiments were performed in triplicate. Table 3. Minimum microbial growth inhibitory concentration values for peptide ug46 against the bacteria S. aureus PCM 2602 and P. aeruginosa PCM 2563.

## CPLGLYGFGG [ug4, engineered pro-regenerative peptide]
[1]; any ug1/ug4 peptide concentration (none lower)
  proliferation: ≥ 70%
[1]; most concentrations of ug1/ug4 peptide
  proliferation: above 100%

## CC[C@H](C)[C@H](NC(=O)CNC(=O)[C@H](C)NC(=O)[C@H](CCC(N)=O)NC(C)=O)C(=O)N[C@H](C(=O)N[C@H](C(=O)N1CCC[C@H]1C(=O)N[C@@H](CC(C)C)C(=O)NCC(=O)N[C@@H](CC(C)C)C(=O)NCC(=O)N[C@@H](CC(C)C)C(=O)N[C@@H](CC(C)C)C(=O)N[C@@H](CCCCN)C(=O)N[C@@H](CCCNC(=N)N)C(=O)N[C@H](C(=O)N[C@@H](CCCCN)C(=O)N[C@H](C(=O)N[C@@H](CC(C)C)C(=O)N[C@@H](CC(C)C)C(N)=O)[C@@H](C)O)[C@@H](C)CC)C(C)C)C(C)C [ug46] (Ac-QAGIVVPLGLGLLKRIKTLL-NH2)
[2]
  Minimum inhibitory concentration of microorganisms (MIC) S. aureus PCM 2602: 100 µg/mL
